Experimental data published in ChEMBL document CHEMBL4811221, “Diosgenin Derivatives as Potential Antitumor Agents: Synthesis, Cytotoxicity, and Mechanism of Action” (J Nat Prod, 2021).
Active and inactive are the calls of the source. The rule behind the calls is not given here.

Experiments:
HepG2 [1] = assay: Induction of apoptosis in human HepG2 cells assessed as cell shrinkage at 4 to 8 uM by fluorescent microscopic analysis; type: functional, cell-based; settings: dose 4-8 µM
HepG2 [2] = assay: Cell cycle arrest in human HepG2 cells assessed as accumulation at G0/G1 phase at 8 uM measured after 24 hrs by RNaseA/propidium iodide staining based flow cytometry (reference value: 49.3 %); type: functional
HepG2 [3] = assay: Induction of apoptosis in human HepG2 cells assessed as live cells at 8 uM measured after 24 hrs by annexinV-FITC/propidium iodide staining based flow cytometry (reference value: 91.7 %); type: functional
HepG2 [4] = assay: Induction of apoptosis in human HepG2 cells assessed as late apoptotic cells at 4 uM measured after 24 hrs by annexinV-FITC/propidium iodide staining based flow cytometry (reference value: 5.45 %); type: functional
HepG2 [5] = assay: Cytotoxicity against human HepG2 cells assessed as cell growth inhibition measured after 24 hrs by MTT assay; type: functional, cell-based; settings: HepG2, 24 h
HepG2 [6] = assay: Induction of apoptosis in human HepG2 cells assessed as live cells at 4 uM measured after 24 hrs by annexinV-FITC/propidium iodide staining based flow cytometry (reference value: 91.7 %); type: functional
L02 = assay: Cytotoxicity against human L02 cells assessed as cell growth inhibition measured after 24 hrs by MTT assay; type: cell-based; settings: L02, 24 h
HepG2 [7] = assay: Induction of apoptosis in human HepG2 cells assessed as necrotic cells at 8 uM measured after 24 hrs by annexinV-FITC/propidium iodide staining based flow cytometry (reference value: 0.77 %); type: functional
HepG2 [8] = assay: Induction of apoptosis in human HepG2 cells assessed as early apoptotic cells at 4 uM measured after 24 hrs by annexinV-FITC/propidium iodide staining based flow cytometry (reference value: 2.03 %); type: functional
HepG2 [9] = assay: Induction of apoptosis in human HepG2 cells assessed as discernible cell rounding at 4 to 8 uM by fluorescent microscopic analysis; type: functional, cell-based; settings: dose 4-8 µM
HepG2 [10] = assay: Cell cycle arrest in human HepG2 cells assessed as accumulation at G2/M phase at 4 uM measured after 24 hrs by RNaseA/propidium iodide staining based flow cytometry (reference value: 22.9 %); type: functional
HepG2 [11] = assay: Induction of apoptosis in human HepG2 cells assessed as formation of apoptotic bodies at 4 to 8 uM by fluorescent microscopic analysis; type: functional, cell-based; settings: dose 4-8 µM
MCF7 = assay: Cytotoxicity against human MCF7 cells assessed as cell growth inhibition measured after 24 hrs by MTT assay; type: functional, cell-based; settings: MCF7, 24 h
HepG2 [12] = assay: Cell cycle arrest in human HepG2 cells assessed as accumulation at G0/G1 phase at 4 uM measured after 24 hrs by RNaseA/propidium iodide staining based flow cytometry (reference value: 49.3 %); type: functional
HepG2 [13] = assay: Cell cycle arrest in human HepG2 cells assessed as accumulation at S phase at 4 uM measured after 24 hrs by RNaseA/propidium iodide staining based flow cytometry (reference value: 24.3 %); type: functional
HepG2 [14] = assay: Induction of apoptosis in human HepG2 cells assessed as membrane blebbing at 4 to 8 uM by fluorescent microscopic analysis; type: functional, cell-based; settings: dose 4-8 µM
HepG2 [15] = assay: Cell cycle arrest in human HepG2 cells assessed as accumulation at S phase at 8 uM measured after 24 hrs by RNaseA/propidium iodide staining based flow cytometry (reference value: 24.3 %); type: functional
HepG2 [16] = assay: Induction of apoptosis in human HepG2 cells assessed as necrotic cells at 4 uM measured after 24 hrs by annexinV-FITC/propidium iodide staining based flow cytometry (reference value: 0.77 %); type: functional
A549 = assay: Cytotoxicity against human A549 cells assessed as cell growth inhibition measured after 24 hrs by MTT assay; type: functional, cell-based; settings: A549, 24 h
HepG2 [17] = assay: Induction of apoptosis in human HepG2 cells assessed as late apoptotic cells at 8 uM measured after 24 hrs by annexinV-FITC/propidium iodide staining based flow cytometry (reference value: 5.45 %); type: functional
HepG2 [18] = assay: Induction of apoptosis in human HepG2 cells assessed as early apoptotic cells at 8 uM measured after 24 hrs by annexinV-FITC/propidium iodide staining based flow cytometry (reference value: 2.03 %); type: functional
HepG2 [19] = assay: Cell cycle arrest in human HepG2 cells assessed as accumulation at G2/M phase at 8 uM measured after 24 hrs by RNaseA/propidium iodide staining based flow cytometry (reference value: 22.9 %); type: functional

In the case of `C[C@@H]1CC[C@@]2(OC1)O[C@H]1C[C@H]3[C@@H]4CC=C5C[C@@H](OC(=O)CCC(=O)N6CCNCC6)CC[C@]5(C)[C@H]4CC[C@]3(C)[C@H]1[C@@H]2C`, the Activity (HepG2 [1]) is reported as “Active”, the Activity (HepG2 [2]) is reported as 64.2% and the Activity (HepG2 [3]) is reported as 78.7%. The Activity (HepG2 [4]) was 5.12%, the IC50 (HepG2 [5]) was 1900 nM and the Activity (HepG2 [6]) was 88.7%. The IC50 (L02) was 18.6 µM, the Activity (HepG2 [7]) was 0.18% and the Activity (HepG2 [8]) was 6.08%. For the same compound, the Activity (HepG2 [9]) was “Active”, the Activity (HepG2 [10]) was 18.6% and the Activity (HepG2 [11]) was “Active”. The IC50 (MCF7) was 2800 nM, the Activity (HepG2 [12]) was 57.4% and the Activity (HepG2 [13]) was 21.5%. For the same compound, the Activity (HepG2 [14]) was “Active”, the Activity (HepG2 [15]) was 17.5% and the Activity (HepG2 [16]) was 0.093%. For the same compound, the IC50 (A549) was 2400 nM, the Activity (HepG2 [17]) was 7.85% and the Activity (HepG2 [18]) was 13.2%. The Activity (HepG2 [19]) was 17.3%.
